From the NIST ThermoML archive (doi:10.1016/j.jct.2013.04.022)

Columns and labels:
[1] = mn = molality of the nth substance listed, in mol/kg; conditions: 298.15 K, 85.9 kPa, Liquid; for mass density: Vibrating tube method; for viscosity: Capillary tube (Ostwald / Ubbelohde) method
[2] = 298.15 K, 85.9 kPa, Liquid; for viscosity: Capillary tube (Ostwald / Ubbelohde) method; for mass density: Vibrating tube method
[3] = refractive index (Na D-line) (dimensionless); conditions: 298.15 K; 85.9 kPa; Liquid; Standard Abbe refractometry

CCCCn1cc[n+](C)c1.[Br-] [1-butyl-3-methylimidazolium bromide] + CC(=O)N(C)C
[1]
Conditions | mass density [kg/m3]
m1 = 0.0527 | 944.36
m1 = 0.1475 | 946.97
m1 = 0.1994 | 950.03

CCCCn1cc[n+](C)c1.[Br-] [1-butyl-3-methylimidazolium bromide] + C[S+](C)[O-]
[1]
Conditions | mass density [kg/m3]
m1 = 0.0751 | 1099.03
m1 = 0.0981 | 1099.68
m1 = 0.1923 | 1103.73

Oc1ccccc1C=Nc1ccccc1N=Cc1ccccc1O [2,2'-[1,2-phenylenebis(nitrilomethylidyne)]bis-phenol] + CC(=O)N(C)C
[1]
Conditions | mass density [kg/m3] | viscosity [mPa·s]
m1 = 0.0106 | 937.33 | 0.954
m1 = 0.0323 | 938.87 | 0.975
m1 = 0.0497 | 940.11 | 0.992
m1 = 0.0704 | 941.6 | 1.012
m1 = 0.0899 | 942.99 | 1.031
m1 = 0.1092 | 944.36 | 1.049
m1 = 0.129 | 945.78 | 1.069
m1 = 0.1492 | 947.22 | 1.087
m1 = 0.174 | 949.06 | –
m1 = 0.1742 | – | 1.011

Oc1ccccc1C=Nc1ccccc1N=Cc1ccccc1O [2,2'-[1,2-phenylenebis(nitrilomethylidyne)]bis-phenol] + C[S+](C)[O-]
[1]
Conditions | mass density [kg/m3] | viscosity [mPa·s]
m1 = 0.0099 | 1095.61 | 1.998
m1 = 0.0307 | 1096.3 | 2.041
m1 = 0.0493 | 1096.92 | 2.073
m1 = 0.07 | 1097.62 | 2.109
m1 = 0.0911 | 1098.35 | 2.151
m1 = 0.1086 | 1098.95 | 2.208
m1 = 0.1311 | 1099.71 | 2.229
m1 = 0.1483 | 1100.31 | 2.289
m1 = 0.1717 | 1101.2 | 2.333

CC(=O)N(C)C [N,N-dimethylethanamide]
Conditions | mass density [kg/m3] | refractive index | viscosity [mPa·s]
[2] | 936.57 | – | 0.961
[3] | – | 1.436 | –

C[S+](C)[O-] [dimethyl sulfoxide]
Conditions | mass density [kg/m3] | refractive index | viscosity [mPa·s]
[2] | 1095.29 | – | 1.867
[3] | – | 1.4762 | –
